# Data published in patent US9375438B2, “Inhibitors of NCCa-ATP channels for therapy” (University of Maryland, Baltimore, priority 2007, dated 2016).
# “Also recorded” adds a separate entry of the source. Read-outs that look alike come from different tables or passages of the source.
# Experiments:
# [1] = tested on: rats with hemi-cervical spinal cord contusion (SCI); assay: SCI model: vimentin immunolabeling of capillaries; assay type: in vivo, rat; conditions: region of injury; glibenclamide 200 ng/h s.q. vs controls
# Protocol: (§1) SCI injury model. This study was performed in accordance with the guidelines of the Institutional Animal Care and Use Committee. Adult female Long-Evans rats (275-350 gm) were anesthetized (Ketamine, 60 mg/kg plus Xylazine, 7.5 mg/kg, i.p.). The dura at C4-5 was exposed via a left hemilaminectomy. A hemi-cervical spinal cord contusion was created using a blunt force impactor (1.3-mm impactor head driven by a 10 gm weight dropped vertically 25 mm) (Soblosky et al., 2001; Gensel et al., 2006). After SCI, animals were given 10 ml of glucose-free normal saline s.q. Rectal temperature was maintained at ˜37° C. using a servo-controlled warming blanket. Blood gases and serum glucose 10-15 min post-SCI were: pO2, 95±6 mm Hg; pCO2, 46±3 mm Hg; pH, 7.33±0.01; glucose 258±17 mg/dl in controls and pO2, 96±7 mm Hg; pCO2, 45±2 mm Hg; pH, 7.37±0.01; glucose 242±14 mg/dl in glibenclamide-treated animals.
# (§2) Drug delivery. […] During the course of the project, slightly different formulations of drug were used, with the best results obtained using stock solutions made by placing 50 mg (or 25 mg) of drug into 10 ml DMSO, and infusion solutions made by placing 400 μl (or 800 μl) stock into 4.6 ml (or 4.2 ml) unbuffered saline (0.9% NaCl) and adjusting the pH to ˜8.5 using 0.1 N NaOH.
# Immunohistochemistry. […] Quantitative immunofluorescence was performed as described (Gerzanich et al., 2003).
# [2] = tested on: rats with percussion-TBI; assay: Percussion-TBI model: lesion size and hippocampal neurons (Nissl sections); assay type: in vivo, rat; conditions: 7 days post-TBI
# Excerpt: (§3) Young adult male Long-Evans rats, 240-280 gm, were studied. Rats were anesthetized (Ketamine and Xylazine) and physiological parameters including temperature and blood gases were maintained within appropriate physiological ranges. With the head fixed in a stereotaxic frame, a 6-mm circular craniectomy was created abutting the sagittal and lambdoidal sutures. A posterior location was chosen to emphasize damage to underlying hippocampus (Vink et al., 2001; Floyd et al., 2002). […] Sham controls underwent craniectomy without percussion.
# [3] = tested on: rats with hemi-cervical spinal cord contusion (SCI); assay: SCI model: extravasated blood in cord (tissue blood); assay type: in vivo, rat
# Protocol: as §1, with “blanket.” for “blanket. Blood gases and serum glucose 10-15 min post-SCI were: pO2, 95±6 mm Hg; pCO2, 46±3 mm Hg; pH, 7.33±0.01; glucose 258±17 mg/dl in controls and pO2, 96±7 mm Hg; pCO2, 45±2 mm Hg; pH, 7.37±0.01; glucose 242±14 mg/dl in glibenclamide-treated animals.”
# For in vivo gene suppression of SUR1, we used oligodeoxynucleotides that were phosphorothioated at 4 distal bonds to protect against endogenous nucleases (35).
# Tissue blood. Rats were sacrificed at various times after SCI (n=5-11 rats/group), were perfused with heparinized saline to remove intravascular blood, and 5-mm segments of cord encompassing the lesion were homogenized and processed as described (Choudhri et al., 1997).
# [4] = tested on: recombinant MMP-2 and MMP-9; assay: Zymography, gelatinase activity of recombinant MMP; assay type: biochemical; conditions: glibenclamide 10 μM; MMP-inhibitor II 300 nM
# Protocol: Zymography of recombinant MMP-2 and MMP-9 (Sigma) was performed as described (Sumii and Lo, 2002).
# [5] = tested on: rats with hemi-cervical spinal cord contusion (SCI); conditions: following SCI (Simard et al., 2007); cited from earlier work
# [6] = tested on: rodent models of ischemic stroke; conditions: model of malignant cerebral edema; cited from earlier work
# [7] = Long-Evans, rat, in vivo
# [8] = tested on: rats with hemi-cervical spinal cord contusion (SCI); assay: SCI model: lesion size; assay type: in vivo, rat
# Protocol: as §1, §2
# Lesion size. At 7 d post-SCI, cords were paraffin sectioned and stained with H&E. Lesion volumes were calculated from lesion areas measured on serial sections every 250 μm.
# Immunohistochemistry. Cryosections were immunolabeled (Chen et al., 2003; Simard et al., 2006) using primary antibodies directed against SUR1 (Santa Cruz, C-16; 1:200; 1 h at RT, 48 h at 4° C.), SUR2 (Santa Cruz, H-80; 1:200; 1 h at RT, 48 h at 4° C.), GFAP (Sigma, C-9205; 1:500), and vimentin (Sigma, monoclonal CY3 conjugated; 1:100). Quantitative immunofluorescence was performed as described (Gerzanich et al., 2003).
# [9] = Effect of glibenclamide doses on serum glucose; assay type: in vivo, rat; conditions: uninjured rats and rats with stroke and SCI; dose1-dose4
# [10] = tested on: uninjured rats; assay: Tail tip bleeding time; assay type: in vivo, rat; conditions: for bleeding time (effect): uninjured rats infused with glibenclamide vs vehicle
# Protocol: Bleeding times were measured using tail tip bleeding as described (Lorrain et al., 2003).
# [11] = tested on: rats with percussion-TBI; assay: Percussion-TBI model: extravasated blood in brain homogenates; assay type: in vivo, rat
# Excerpt: as §3
# [12] = rat, in vivo
# Protocol: as §1, §2
# [13] = tested on: cells expressing SUR1-regulated NCCa-ATP channel; conditions: cited from earlier work
# [14] = tested on: rats with hemi-cervical spinal cord contusion (SCI); conditions: following SCI (Simard et al., 2007); cited from earlier work; remark: listed apart in the source
# [15] = tested on: rats with percussion-TBI; assay: Percussion-TBI model: spontaneous forelimb use and spontaneous vertical exploration; assay type: in vivo, rat
# Excerpt: as §3
# Spontaneous forelimb use (SFU) was quantified and spontaneous vertical exploration (SVE) was quantified during 7 days post-TBI. SFU measures sensorimotor asymmetry (Schallert et al., 2000) whereas SVE measures not only vestibulomotor function but also time spent in exploratory activity.
compound,measurement,setting,value
COc1ccc(Cl)cc1C(=O)NCCc1ccc(S(=O)(=O)NC(=O)NC2CCCCC2)cc1 [glibenclamide],appearance of vimentin(+) capillaries,[1],elongated and appeared more normal
same,lesion area on coronal sections at the epicenter of injury,[2]; 10 rats/group,4.4±0.8 mm^2
same,hippocampus on Nissl stained sections,[2]; vs vehicle,sparing of hippocampus
same,hemorrhage in cords (visual),"[3]; 24 h post-SCI, glibenclamide 200 ng/h s.q. vs vehicle",visibly less hemorrhage
same,extravasated blood in tissue homogenates,"[3]; during the 24 h after injury, glibenclamide 200 ng/h s.q. vs vehicle",little increase
same,PHN,[3]; following SCI (summary),significantly reduced
same,gelatinase activity of recombinant MMP,[4],the same; also recorded: not affected
same,capillary fragmentation and progressive secondary hemorrhage,[5],essentially eliminates
same,mortality,[6],by half
same,time required to achieve 90% steady-state serum drug levels,[7],3 h
same,"lesions, gliosis and myelin (GFAP and myelin labeling)","[8]; 24 h post-SCI, vs controls","smaller lesions, less reactive gliosis and better myelin preservation"
same,lesions on hematoxylin and eosin cross sections,"[8]; 7 d post-SCI, vs controls",smaller lesions
same,reduction in lesion volume,"[8]; following SCI, compared to controls (summary)",3 fold
same,effect of proposed doses on serum glucose,[9],"only the highest are hypoglycemogenic, but only mildly so"
same,bleeding time (effect),[10],no effect
same,bleeding time (effect),[10]; listed as Glibenclamide,did not affect
same,tail bleeding time,"[10]; uninjured rats, same dose (200 ng/hr), n=3-5",21.5 ± 3.1 s
same,appearance of tissue homogenates,"[11]; 24 hr post-injury, vs vehicle",visibly less bloody
same,increase in extravasated blood,"[11]; later times (6 and 24 hr) post-TBI, vs vehicle",prevented further increases in blood
same,volume of blood in brain homogenate,"[11]; ½ hr post-injury, glibenclamide 200 ng/hr s.q. vs vehicle",did not affect
same,blood pH,[12],7.37±0.01
same,pCO2,[12],45±2 mm Hg
same,pO2,[12],96±7 mm Hg
same,serum glucose,[12],242 ± 14 mg/dL
same,oncotic (necrotic) cell death on ATP depletion,[13],can be blocked
same,reduction in lesion volume,[14],3 fold
same,spontaneous vertical exploration (SVE),"[15]; 1, 2 and 7 days post-TBI, vs vehicle controls",significantly greater
same,spontaneous use of the forelimb contralateral to the injury,[15]; 2 days post-TBI,16.5±3.4%
